Reference: patent publication US11999677B2, “Benzylamino-oxoethyl benzamide analogs and methods of use” (The Board of Regents of the University of Oklahoma, priority 2018, dated 2024)
“Also recorded” adds a separate entry of the source. Like-named read-outs stand apart in the source and are kept apart here.

Key:
INS-1 cells = test: Cell viability assay: INS-1 β-cells co-treated with compound and tunicamycin (Tm), CellTiter-Glo intracellular ATP; type: cell-based, rat; conditions: for β-cell protective activity against Tm (in words): INS-1 cells in the presence of Tm; for Emax: INS1, 72 h, read-out: Max Activity (%); for Emax / Max Activity (%): % rescue from Tm (0.15 μg/mL)-induced reduction of INS-1 cell viability, intracellular ATP, 72 h, Tm alone = 0%, DMSO control without Tm = 100%; for EC50: ten 2-fold serial titration points, triplicate, read-out: EC50 (μM), concentration that reaches half-maximal activity for INS-1 cell viability
Method: INS-1 cells were cultured in RPMI 1640 medium (Corning) supplemented with 10% FBS (Atlanta Biologicals), 10 mM HEPES (Gibco-Life Technologies), 1 mM sodium pyruvate (Corning), 50 μM 2-mercaptoethanol (Sigma-Aldrich), and antibiotics (100 UI/mL penicillin and 100 µg/mL streptomycin; Corning) and maintained in a humidified 5% CO2 atmosphere at 37° C.
INS-1 cells were resuspended in RPMI 1640 medium containing 10% FBS and plated at 5×10^3 cells/(40 μL.well) into white clear bottom 384-well plates (Greiner) using an automated liquid handler (Biotek). After 24 h incubation at 37° C., library compounds were added to the wells at the indicated concentration using a pin-transfer robot (PerkinElmer). Tunicamycin (Tm) in RPMI 1640 medium containing 10% FBS was then added at a final concentration of 0.15 μg/mL. After 72 h, the medium was removed and 20 μL of CellTiter-Glo reagent which measures intracellular ATP levels as an indicator of viability (Promega) was added. Luminescence was measured 10 min later using an Envision plate reader (PerkinElmer).
We designed and synthesized novel benzylamino-oxoethyl benzamide analogs (5a-q, Table 1) and studied their effects on β-cell protection against ER stress. The analogs were tested for the viability of rat INS-1 β-cells in the presence of Tm, a potent ER stress inducer that inhibits N-linked glycosylation of proteins. The maximum activities and the concentrations that reach half-maximal activity (EC50) of the compounds were evaluated by the degree of increase in viability of INS-1 cells co-treated with the compounds in the presence of Tm compared with Tm treatment alone.

[1] = Solubility assay: turbidity in water, absorbance at 620 nm; type: physicochemical; conditions: pure H2O with 1% DMSO, 37° C., 1-2 h shaking, absorbance 620 nm; compared with compound 1
Method: Aqueous solubility was assessed as the degree of turbidity of compound in aqueous solutions, detected by absorbance at 620 nm. Higher turbidity indicated lower solubility. The experiments were performed in triplicate, with the results as the means±SD of triplicate wells.
Each compound was prepared at concentrations from 40 mM to 0.1 mM in DMSO in a serial-dilution manner. 2 μL of each of the above compound solutions was then dispensed directly to ˜198 μL of pure H2O in a 96-well white clear bottom microplate. Resulting solutions were shaken at 37° C. temperature 1-2 h on a rotary shaker at varying shaking rates to reach equilibrium solubility. The turbidity of the solution was measured using UV-visible spectrophotometry at 620 nm.
We investigated whether the compounds of the present disclosure have improved aqueous solubility. Using a thermodynamic turbidimetric assay we evaluated the aqueous solubility of several of the newly synthesized compounds.

pancreatic β-cells = conditions: cited from earlier work
[2] = Rattus norvegicus, INS1, INS-1 cells with Tm 0.15 μg/mL

Row | aqueous solubility (turbidimetric, in words) [1] | Structure (SMILES) | β-cell protective activity against Tm (in words) (INS-1 cells) | Emax (INS-1 cells; Rattus norvegicus) [%] | EC50 (INS-1 cells; [2]) [µM] | Max Activity (%) (INS-1 cells) | EC50 (INS-1 cells; INS-1 cells with Tm 0.15 μg/mL) [µM] | protective activity for pancreatic β-cells against ER stress (previously shown) (pancreatic β-cells)
1 | – | COc1cc(CNC(=O)CNC(=O)c2cccc(O)c2)ccc1O [Compound 5n, 3-Hydroxy-N-(2-((4-hydroxy-3-methoxybenzyl)amino)-2-oxoethyl)benzamide] | significantly compromised activity | 30 | 65 ± 8 | – | – | –
2 | – | Cc1c(Cl)cccc1C(=O)NCC(=O)NCc1cccc(C(F)(F)F)c1 [Compound 5i, 3-Chloro-2-methyl-N-(2-oxo-2-((3-(trifluoromethyl)benzyl)amino)ethyl)benzamide] | – | 46 | 32 ± 7 | 46% | – | –
3 | – | Cc1c(Cl)cccc1C(=O)NCC(=O)NCc1ccccn1 [Compound 5b, 3-Chloro-2-methyl-N-(2-oxo-2-((pyridin-2-ylmethyl)amino)ethyl)benzamide] | – | 16 | 38 ± 9 | 16% | – | –
4 | – | CCc1ccc(C(=O)NCC(=O)NCc2ccc(C(F)(F)F)cc2)cc1 [Compound 5k, 4-Ethyl-N-(2-oxo-2-((4-(trifluoromethyl)benzyl)amino)ethyl)benzamide] | – | 42 | – | 42% | 45 ± 8 | –
5 | improved water solubility | Cc1c(Cl)cccc1C(=O)NCC(=O)NCc1ccc(C(F)(F)F)cc1 [Compound 5g, 3-Chloro-2-methyl-N-(2-oxo-2-((4-(trifluoromethyl)benzyl)amino)ethyl)benzamide] | – | 88 | 13 ± 1 | 88% | – | –
6 | – | O=C(CNC(=O)c1ccccc1)NCc1ccc(C(F)(F)F)cc1 [Compound 5j, N-(2-Oxo-2-((4-(trifluoromethyl)benzyl)amino)ethyl)benzamide] | – | 35 | – | 35% | 43 ± 11 | –
7 | improved water solubility | COc1cc(CNC(=O)CNC(=O)c2cccc(Cl)c2C)ccc1O [Compound 5h, 3-Chloro-N-(2-((4-hydroxy-3-methoxybenzyl)amino)-2-oxoethyl)-2-methylbenzamide] | – | 100 | 10 ± 2 | 100% | – | –
8 | – | COc1ccc(CNC(=O)CNC(=O)c2cccc(Cl)c2C)cc1 [Compound 5d, 3-Chloro-N-(2-((4-methoxybenzyl)amino)-2-oxoethyl)-2-methylbenzamide] | – | 41 to 55 | 32 ± 7 | 55% | – | –
9 | – | COc1cc(C(=O)NCC(=O)NCc2ccc(C(F)(F)F)cc2)ccc1O [Compound 5o, 4-hydroxy-3-methoxy-N-(2-oxo-2-((4-(trifluoromethyl)benzyl)amino)ethyl)benzamide] | significantly compromised activity | 43 | 29 ± 6 | – | – | –
10 | – | Cc1c(Cl)cccc1C(=O)NCC(=O)NCCc1ccc(O)cc1 [Compound 5f, 3-Chloro-N-(2-((4-hydroxyphenethyl)amino)-2-oxoethyl)-2-methylbenzamide] | – | 41 to 55 | 34 ± 8 | 41% | – | –
11 | – | Cc1c(Cl)cccc1C(=O)NC(C)C(=O)NCc1ccc(C(F)(F)F)cc1 (stereo not drawn) [Compound 5p, 3-Chloro-2-methyl-N-(1-oxo-1-((4-(trifluoromethyl)benzyl)amino)propan-2-yl)benzamide] | significantly less or not active | 34 | 63 ± 4 | – | – | –
12 | – | Cc1c(Cl)cccc1C(=O)NC(Cc1ccc(O)cc1)C(=O)NCc1ccc(C(F)(F)F)cc1 (stereo not drawn) [Compound 5q, 3-Chloro-N-(3-(4-hydroxyphenyl)-1-oxo-1-((4-(trifluoromethyl)benzyl)amino)propan-2-yl)-2-methylbenzamide] | significantly less or not active | – | – | Cytotoxic | – | –
13 | – | Cc1c(Cl)cccc1C(=O)NCC(=O)NCc1ccc(S(N)(=O)=O)cc1 [Compound 5e, 3-Chloro-2-methyl-N-(2-oxo-2-((4-sulfamoylbenzyl)amino)ethyl)benzamide] | – | 41 to 55 | 40 ± 12 | 52% | – | –
14 | – | O=C(CNC(=O)c1ccc(F)cc1)NCc1ccc(C(F)(F)F)cc1 [Compound 5l, 4-fluoro-N-(2-oxo-2-((4-(trifluoromethyl)benzyl)amino)ethyl)benzamide] | – | 12 | 41 ± 6 | 12% | – | –
15 | – | Cc1c(Cl)cccc1C(=O)NCC(=O)Nc1ccc2nc[nH]c2c1 [Compound 5c, N-(2-((1H-benzo[d]imidazol-6-yl)amino)-2-oxoethyl)-3-chloro-2-methylbenzamide] | – | 0 | – | – | – | –
16 | – | Cc1ccc(C)c(CNC(=O)CNC(=O)c2cccc(Cl)c2C)c1 [Compound 5a, 3-Chloro-N-(2-((2,5-dimethylbenzyl)amino)-2-oxoethyl)-2-methylbenzamide] | – | 45 | 18.6 | 45% | 18 ± 4 | –
17 | improved water solubility | O=C(CNC(=O)c1cccc(O)c1)NCc1ccc(C(F)(F)F)cc1 [Compound 5m, 3-Hydroxy-N-(2-oxo-2-((4-(trifluoromethyl)benzyl)amino)ethyl)benzamide] | – | 100 | 0.1 | 100% | – | –

Row | Structure (SMILES) | aqueous solubility (turbidimetric, in words) [1] | β-cell protective activity against Tm (in words) (INS-1 cells) | Emax (INS-1 cells; Rattus norvegicus) [%] | EC50 (INS-1 cells; [2]) [µM] | Max Activity (%) (INS-1 cells) | EC50 (INS-1 cells; INS-1 cells with Tm 0.15 μg/mL) [µM] | protective activity for pancreatic β-cells against ER stress (previously shown) (pancreatic β-cells)
18 | Cc1ccc(C)c(NC(=O)c2nnn(-c3cccc(Cl)c3C)c2C)c1 [Compound 1, 1-(3-chloro-2-methylphenyl)-N-(2,5-dimethylphenyl)-5-methyl-1H-1,2,3-triazole-4-carboxamide, reference compound] | sub-optimal aqueous solubility; also recorded: poor water solubility | – | – | – | – | – | protective activity
